In one data set the target is T1, CYP3A4 (Homo sapiens, UniProt P08684).
T1 construct: purchased BD Gentest
The experiment in a line: CYP inhibition assay 3A4. Format: in vitro ADME. How it is done:
(§1) The half-maximal inhibitory concentration (IC50) for cytochrome P450 (CYP) enzymes was determined using an in vitro enzyme inhibition assay. Recombinant CYP enzymes or human liver microsomes from BD Gentest, in 0.1 M phosphate buffer pH 7.4, containing native CYP enzymes were incubated with the test compound at various concentrations (1, 3, 10 and 30 μM) and containing 0.5% DMSO and 0.1% BSA final concentrations. 1 mM of NADPH cofactor was added and the reaction was started by a rapid increase of temperature until 37°C.

Another data set is described as follows: Hepatocyte clearance. Type of data set: in vitro ADME. The settings on record: cryopreserved hepatocytes, 120 min, read-out: Hep. clearance (converted). How it is done: Cryopreserved hepatocytes were exposed to test Compounds at a concentration of 1 μM for 120 minutes. Samples were collected at various time points, and percent remaining of test compound was determined using mass spectrometry (LC-MS/MS) to calculate hepatic clearance rate (L/h/kg).

In another data set the target is T2, human TRPM5 (Homo sapiens, UniProt Q9NZQ8).
T2 sequence (Q9NZQ8 1-1165): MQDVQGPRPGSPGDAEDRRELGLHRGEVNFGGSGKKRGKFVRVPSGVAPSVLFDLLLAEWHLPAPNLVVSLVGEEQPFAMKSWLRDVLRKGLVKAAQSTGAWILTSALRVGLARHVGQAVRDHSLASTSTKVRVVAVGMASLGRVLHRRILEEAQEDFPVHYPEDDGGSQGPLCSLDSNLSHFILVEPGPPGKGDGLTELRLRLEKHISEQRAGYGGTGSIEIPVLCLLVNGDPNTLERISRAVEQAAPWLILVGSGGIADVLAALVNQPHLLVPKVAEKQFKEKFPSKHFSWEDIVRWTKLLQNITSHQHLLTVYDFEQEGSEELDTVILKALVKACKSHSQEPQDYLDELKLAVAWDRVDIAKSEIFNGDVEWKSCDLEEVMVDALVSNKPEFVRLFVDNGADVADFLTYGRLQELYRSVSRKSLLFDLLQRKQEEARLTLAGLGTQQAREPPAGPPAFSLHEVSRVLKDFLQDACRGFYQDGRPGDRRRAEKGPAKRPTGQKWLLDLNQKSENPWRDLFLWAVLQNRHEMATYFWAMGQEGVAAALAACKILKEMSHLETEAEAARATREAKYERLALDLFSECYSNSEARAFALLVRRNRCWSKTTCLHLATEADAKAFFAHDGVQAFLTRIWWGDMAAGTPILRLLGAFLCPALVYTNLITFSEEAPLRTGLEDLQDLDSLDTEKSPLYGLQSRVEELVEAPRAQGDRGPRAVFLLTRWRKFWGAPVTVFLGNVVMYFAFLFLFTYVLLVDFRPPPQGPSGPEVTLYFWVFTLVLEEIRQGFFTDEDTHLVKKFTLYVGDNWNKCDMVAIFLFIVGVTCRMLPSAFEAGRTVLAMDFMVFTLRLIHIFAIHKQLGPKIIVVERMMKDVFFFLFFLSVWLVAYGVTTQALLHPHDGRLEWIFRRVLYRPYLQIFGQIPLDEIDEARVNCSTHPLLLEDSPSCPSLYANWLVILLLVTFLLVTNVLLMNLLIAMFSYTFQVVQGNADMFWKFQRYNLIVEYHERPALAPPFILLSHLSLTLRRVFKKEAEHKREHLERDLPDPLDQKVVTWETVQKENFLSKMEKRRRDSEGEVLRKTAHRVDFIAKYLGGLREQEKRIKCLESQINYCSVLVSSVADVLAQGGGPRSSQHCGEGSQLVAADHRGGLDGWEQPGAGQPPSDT
The data set can be described thus: QPatch automated patch clamp on TRPM5-expressing HEK293 cells. Format: cell-based. The settings on record: hsTRPM5-expressing HEK293 cells. The text has this: The counter screening phase involved the inclusion of hsTRPM5-expressing HEK293 cells, as closest homologue, and the parental HEK293 cell line to evaluate selectivity. […] Based on categorization of biological activity, mass spectrometry quality control, and aspects of medicinal chemistry, we prioritized 144 selective hsTRPM4 compounds. These compounds were then subjected to automated patch clamp electrophysiology measurements (QPatch[58]) to evaluate their activity profiles and IC50 values (Figures 1A, S1, and S2).
(§2) QPatchHTX, an automated electrophysiology platform, was used in single hole mode. One day before use human TRPM4- or TRPM5-expressing HEK293 cells were seeded in a T75 flask at a density of 53k cells per cm^2 and at passages < 23. For QPatch assays, cells were harvested and re-suspended in SFM (Gibco, 11686029). The extracellular solution was (in mM): CaCl2 (7), MgCl2 (2), KCl (5), HEPES (10), NaCl (70), NMDG (70); pH 7.4 with NaOH. The intracellular solution was (in mM): HEPES (10), NMDG (100), NaCl (50), EGTA (20), MgCl2 (1), CaCl2 (21); pH 7.2 with HCl. After break-in, channels were consistently open and current through the channels could be observed at a voltage ramp from –100 mV to +100 mV over 500 ms. This protocol was repeated every 7 seconds. After saline and vehicle application, the channel was desensitized and residual current was used as baseline. FFA was used as reference compound and applied cumulatively with each concentration incubating at a minimum of 20 voltage protocol runs (140 seconds) with the current after addition of FFA being calculated as full block. […] Each compound was measured at least 3 time independently.

The next data set concerns the target human TRPM4 (Homo sapiens, UniProt Q8TD43). The data set can be described thus: QPatch automated patch clamp on TRPM4-expressing HEK293 cells. Type of data set: cell-based. The settings on record: hsTRPM4-expressing HEK293 cells. On the procedure: as §2, with “For QPatch assays, cells were harvested and re-suspended in SFM (Gibco, 11686029).” left out, “After break-in, channels were consistently open and current through the channels could be observed at a voltage ramp from –100 mV to +100 mV over 500 ms.” left out, “After saline and vehicle application, the channel was desensitized and residual current was used as baseline.” left out

The target of the next data set is T3, CYP2D6 (Homo sapiens, UniProt P10635).
T3 construct: purchased BD Gentest
T3 sequence (P10635 whole entry): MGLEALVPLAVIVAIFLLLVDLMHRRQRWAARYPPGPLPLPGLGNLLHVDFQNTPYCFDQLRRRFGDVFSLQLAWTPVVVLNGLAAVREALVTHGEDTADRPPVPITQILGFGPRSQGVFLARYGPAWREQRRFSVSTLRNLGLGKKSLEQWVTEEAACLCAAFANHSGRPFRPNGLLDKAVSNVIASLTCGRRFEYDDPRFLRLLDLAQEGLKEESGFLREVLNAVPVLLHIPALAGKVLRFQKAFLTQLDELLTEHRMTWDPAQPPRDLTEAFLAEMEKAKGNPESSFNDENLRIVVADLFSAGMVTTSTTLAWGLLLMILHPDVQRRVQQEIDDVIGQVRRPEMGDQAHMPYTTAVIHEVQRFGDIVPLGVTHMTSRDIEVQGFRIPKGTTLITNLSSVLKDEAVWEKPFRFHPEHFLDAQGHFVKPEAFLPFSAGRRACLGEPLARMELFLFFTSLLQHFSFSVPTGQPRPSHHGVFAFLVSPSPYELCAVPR
The data set can be described thus: CYP inhibition assay 2D6. Type of data set: in vitro ADME. On the procedure: as §1

The mark [1] stands for this setting: TDI, read-out: Cyp IC50 TDI 3A4.

The structures appear in SMILES notation. Like-named read-outs stand apart in the source and are kept apart here.

For orientation: IC50 means the concentration at which inhibition is half-maximal.

T1 sequence (P08684 whole entry): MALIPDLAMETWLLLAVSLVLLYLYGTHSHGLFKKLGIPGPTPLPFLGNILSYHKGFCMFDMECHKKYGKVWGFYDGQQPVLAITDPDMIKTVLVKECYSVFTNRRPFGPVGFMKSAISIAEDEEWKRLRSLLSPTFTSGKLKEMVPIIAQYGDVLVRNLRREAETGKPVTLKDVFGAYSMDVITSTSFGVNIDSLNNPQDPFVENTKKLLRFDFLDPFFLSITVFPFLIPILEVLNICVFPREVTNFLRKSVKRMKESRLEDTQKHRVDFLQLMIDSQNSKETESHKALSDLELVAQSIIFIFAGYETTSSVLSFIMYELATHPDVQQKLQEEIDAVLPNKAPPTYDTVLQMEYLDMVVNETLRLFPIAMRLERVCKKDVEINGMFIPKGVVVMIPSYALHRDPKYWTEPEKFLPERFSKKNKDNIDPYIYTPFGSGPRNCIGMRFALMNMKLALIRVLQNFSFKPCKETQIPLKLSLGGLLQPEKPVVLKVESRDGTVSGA
human TRPM4, sequence (Q8TD43 whole entry): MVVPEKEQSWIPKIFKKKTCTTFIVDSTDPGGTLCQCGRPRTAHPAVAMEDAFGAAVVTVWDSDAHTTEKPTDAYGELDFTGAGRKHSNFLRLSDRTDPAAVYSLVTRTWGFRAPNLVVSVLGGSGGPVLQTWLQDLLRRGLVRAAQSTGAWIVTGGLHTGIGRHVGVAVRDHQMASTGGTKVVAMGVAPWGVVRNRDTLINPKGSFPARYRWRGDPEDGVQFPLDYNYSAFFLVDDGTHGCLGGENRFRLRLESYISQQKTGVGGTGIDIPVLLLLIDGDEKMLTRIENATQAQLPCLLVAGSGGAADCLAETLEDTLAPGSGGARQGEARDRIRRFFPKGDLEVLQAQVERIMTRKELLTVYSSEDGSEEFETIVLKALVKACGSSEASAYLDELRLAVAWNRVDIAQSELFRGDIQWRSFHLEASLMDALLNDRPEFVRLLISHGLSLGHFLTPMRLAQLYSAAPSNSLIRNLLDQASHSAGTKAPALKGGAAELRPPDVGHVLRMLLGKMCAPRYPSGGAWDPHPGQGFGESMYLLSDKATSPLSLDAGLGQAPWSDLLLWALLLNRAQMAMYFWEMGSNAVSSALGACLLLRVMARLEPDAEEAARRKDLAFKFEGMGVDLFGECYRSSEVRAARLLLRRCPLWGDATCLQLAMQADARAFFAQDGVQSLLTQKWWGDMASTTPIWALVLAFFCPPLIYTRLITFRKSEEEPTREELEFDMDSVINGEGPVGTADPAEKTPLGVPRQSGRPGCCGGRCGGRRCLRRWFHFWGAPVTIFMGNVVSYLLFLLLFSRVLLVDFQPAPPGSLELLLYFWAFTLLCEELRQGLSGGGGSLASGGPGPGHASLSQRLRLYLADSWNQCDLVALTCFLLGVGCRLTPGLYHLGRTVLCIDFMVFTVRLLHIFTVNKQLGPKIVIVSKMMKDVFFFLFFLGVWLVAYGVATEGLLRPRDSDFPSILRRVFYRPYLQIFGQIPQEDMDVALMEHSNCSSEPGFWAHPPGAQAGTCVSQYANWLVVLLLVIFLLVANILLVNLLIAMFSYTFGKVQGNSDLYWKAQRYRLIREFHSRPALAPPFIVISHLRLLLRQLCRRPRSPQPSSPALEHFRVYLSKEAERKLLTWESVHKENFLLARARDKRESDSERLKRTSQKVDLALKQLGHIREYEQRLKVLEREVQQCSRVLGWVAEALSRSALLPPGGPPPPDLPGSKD

As to `Fc1cccc(-c2ccccc2NCc2nc3ccccc3o2)c1` [CMP343], the concentration for half-maximal inhibition (IC50) at CYP3A4 (setting [1]) is more than 50 µM; at CYP3A4 (read-out: Cyp IC50 3A4), more than 50 µM; at human TRPM5 it was more than 10 µM; against human TRPM4 it was 0.09 µM; against CYP2D6 it was more than 50 µM. Besides, the CLint scaled at 1 μM in “Hepatocyte clearance” is 19.3 L/h/kg.
In the case of `Fc1ccccc1-c1ccccc1NCc1nc2ccccc2o1` [CMP353], the IC50 was more than 29.6 µM on CYP3A4 (read-out: Cyp IC50 3A4), more than 10 µM against human TRPM5, 0.08 µM against human TRPM4 and more than 50 µM on CYP2D6. The CLint scaled at 1 μM in “Hepatocyte clearance” is 33.7 L/h/kg.
On to `c1csc(-c2ccccc2NCc2nc3ccccc3o2)c1` [CMP355], for which the IC50 was more than 50 µM on CYP3A4 (setting [1]); more than 50 µM on CYP3A4 (read-out: Cyp IC50 3A4); more than 10 µM against human TRPM5; 0.59 µM on human TRPM4; more than 50 µM against CYP2D6. Also, in the data set “Hepatocyte clearance”, the CLint scaled at 1 μM was 17.6 L/h/kg.
For the molecule `Cc1ccsc1-c1ccccc1NCc1nc2ccccc2o1` [CMP369], the IC50 against CYP3A4 (human, pH 7.4) was more than 50 µM; against human TRPM5, more than 10 µM; against CYP2D6 (human, pH 7.4), more than 50 µM. Besides, the CLint scaled at 1 μM in “Hepatocyte clearance” is 20.8 L/h/kg.
Consider `Nc1ccccc1-c1ccccc1NCc1nc2ccccc2o1` [CMP457], for which the values for the IC50 against human TRPM5 and at CYP2D6 were more than 30 µM and more than 50 µM, respectively.

The values above are taken from publication PMC11648915, “Identification and development of TRPM4 antagonists to counteract neuronal excitotoxicity” (iScience, 2024).
